# “And” between values parts separate entries of the source, which are not always exact repeats. Equal values may be shown once. Inconclusive results and toxic doses are left out.
# Tested on: B6C3F1 mice, B16 melanoma ip, median survival T/C
# Assay: NCI In Vivo Anticancer Drug Screen. Data for tumor model B16 Melanoma (intraperitoneal) in B6C3F1 mice
# Conditions: endpoint: median survival time, higher = longer survival
# Summary of the method: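 Mice bearing transplanted tumor were dosed with compound or vehicle, and survival was recorded. Activity is expressed as the treated-group measurement (T) divided by the vehicle control measurement (C).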
# [1] = dose: 25.0 mg/kg/injection, schedule: Q01DX009 (ip), vehicle: saline with Tween-80
# [2] = dose: 50.0 mg/kg/injection, schedule: Q01DX009 (ip), vehicle: saline with Tween-80
# [3] = dose: 50.0 mg/kg/injection, schedule: Q01DX009 (ip), vehicle: saline
# [4] = dose: 100.0 mg/kg/injection, schedule: Q01DX009 (ip), vehicle: saline with Tween-80
# [5] = dose: 100.0 mg/kg/injection, schedule: Q01DX009 (ip), vehicle: saline
# [6] = dose: 200.0 mg/kg/injection, schedule: Q01DX009 (ip), vehicle: saline with Tween-80
# [7] = dose: 12.5 mg/kg/injection, schedule: Q01DX009 (ip), vehicle: saline
# [8] = dose: 25.0 mg/kg/injection, schedule: Q01DX009 (ip), vehicle: saline
# [9] = dose: 200.0 mg/kg/injection, schedule: Q01DX009 (ip), vehicle: saline
# [10] = dose: 100.0 mg/kg/injection, schedule: Q01DX009 (ip), vehicle: Klucel (hydroxypropylcellulose) (HPC)
# [11] = dose: 200.0 mg/kg/injection, schedule: Q01DX009 (ip), vehicle: Klucel (hydroxypropylcellulose) (HPC)
# [12] = dose: 5.0 mg/kg/injection, schedule: Q01DX009 (ip), vehicle: water
# [13] = dose: 10.0 mg/kg/injection, schedule: Q01DX009 (ip), vehicle: water
compound,measurement,setting,value
CC1(CO)C(O)CCC2(C)C1CCC1CC3CC12CCC3(O)CO (stereo not given),T/C,"dose: 10.0 mg/kg/injection, schedule: Q03HX027 (ip), vehicle: saline with Tween-80",118 % of control
same,T/C,"dose: 12.5 mg/kg/injection, schedule: Q01DX009 (ip), vehicle: saline with Tween-80",116 % of control and 117 % of control
same,T/C,[1],119 % of control and 122 % of control
same,T/C,"dose: 30.0 mg/kg/injection, schedule: Q01DX005 (iv), vehicle: Klucel (hydroxypropylcellulose) (HPC)",103 % of control
same,T/C,"dose: 40.0 mg/kg/injection, schedule: Q03HX027 (ip), vehicle: saline with Tween-80",187 % of control and 202 % of control
same,T/C,"dose: 50.0 mg/kg/injection, schedule: Q01DX009 (ip), vehicle: distilled water + Tween-80",179 % of control
same,T/C,[2],159 % of control
same,T/C,[3],109 % of control
same,T/C,"dose: 60.0 mg/kg/injection, schedule: Q01DX005 (iv), vehicle: Klucel (hydroxypropylcellulose) (HPC)",95 % of control
same,T/C,"dose: 60.0 mg/kg/injection, schedule: Q01DX005 (oral), vehicle: Klucel (hydroxypropylcellulose) (HPC)",106 % of control
same,T/C,"dose: 75.0 mg/kg/injection, schedule: Q01DX009 (ip), vehicle: saline",113 % of control
same,T/C,"dose: 80.0 mg/kg/injection, schedule: Q03HX027 (ip), vehicle: saline with Tween-80",235 % of control
same,T/C,"dose: 100.0 mg/kg/injection, schedule: Q01DX009 (ip), vehicle: distilled water + Tween-80",166 % of control
same,T/C,[4],162 % of control and 173 % of control and 187 % of control
same,T/C,[5],119 % of control
same,T/C,"dose: 120.0 mg/kg/injection, schedule: Q01DX005 (ip), vehicle: Klucel (hydroxypropylcellulose) (HPC)",150 % of control
same,T/C,"dose: 120.0 mg/kg/injection, schedule: Q01DX005 (iv), vehicle: Klucel (hydroxypropylcellulose) (HPC)",104 % of control
same,T/C,"dose: 120.0 mg/kg/injection, schedule: Q01DX005 (oral), vehicle: Klucel (hydroxypropylcellulose) (HPC)",99 % of control
same,T/C,"dose: 150.0 mg/kg/injection, schedule: Q01DX009 (ip), vehicle: saline",161 % of control
same,T/C,"dose: 200.0 mg/kg/injection, schedule: Q01DX009 (ip), vehicle: distilled water + Tween-80",201 % of control
same,T/C,[6],236 % of control
same,T/C,"dose: 240.0 mg/kg/injection, schedule: Q01DX005 (ip), vehicle: Klucel (hydroxypropylcellulose) (HPC)",184 % of control
same,T/C,"dose: 240.0 mg/kg/injection, schedule: Q01DX005 (oral), vehicle: Klucel (hydroxypropylcellulose) (HPC)",104 % of control
same,T/C,"dose: 480.0 mg/kg/injection, schedule: Q01DX005 (oral), vehicle: Klucel (hydroxypropylcellulose) (HPC)",100 % of control
O=C1OC(=O)[C@H]2[C@@H]1[C@H]1C=C[C@@H]2OC1=O,T/C,[7],102 % of control
same,T/C,[8],101 % of control
same,T/C,[3],106 % of control
same,T/C,[5],102 % of control
same,T/C,[9],99 % of control
CCOC(=O)c1c[nH]c2oc(/C=N/N3CC(CN4CCOCC4)OC3=O)cc2c1=O (stereo not given),T/C,[7],112 % of control
same,T/C,[8],118 % of control
same,T/C,[3],117 % of control
N=c1nc2n(cc1F)[C@@H]1O[C@H](CO)[C@@H](O)[C@@H]1O2,T/C,"dose: 25.0 mg/kg/injection, schedule: Q01DX009 (ip), vehicle: Klucel (hydroxypropylcellulose) (HPC)",111 % of control
same,T/C,[8],110 % of control
same,T/C,"dose: 50.0 mg/kg/injection, schedule: Q01DX009 (ip), vehicle: Klucel (hydroxypropylcellulose) (HPC)",121 % of control
same,T/C,[3],112 % of control
same,T/C,[10],110 % of control
same,T/C,[5],117 % of control and 97 % of control
same,T/C,[11],104 % of control
same,T/C,[9],124 % of control and 105 % of control
same,T/C,"dose: 400.0 mg/kg/injection, schedule: Q01DX009 (ip), vehicle: Klucel (hydroxypropylcellulose) (HPC)",117 % of control
same,T/C,"dose: 400.0 mg/kg/injection, schedule: Q01DX009 (ip), vehicle: saline",121 % of control
O=NN(CCCl)C(=O)NCCO,T/C,"dose: 1.5 mg/kg/injection, schedule: Q01DX009 (ip), vehicle: water",102 % of control
same,T/C,"dose: 1.56 mg/kg/injection, schedule: Q01DX009 (ip), vehicle: water",122 % of control
same,T/C,"dose: 3.0 mg/kg/injection, schedule: Q01DX009 (ip), vehicle: water",104 % of control
same,T/C,"dose: 3.12 mg/kg/injection, schedule: Q01DX009 (ip), vehicle: water",189 % of control
same,T/C,"dose: 6.0 mg/kg/injection, schedule: Q01DX009 (ip), vehicle: water",105 % of control
same,T/C,"dose: 6.25 mg/kg/injection, schedule: Q01DX009 (ip), vehicle: water",201 % of control
same,T/C,"dose: 12.0 mg/kg/injection, schedule: Q01DX009 (ip), vehicle: water",109 % of control
same,T/C,"dose: 12.5 mg/kg/injection, schedule: Q01DX009 (ip), vehicle: water",194 % of control
COC1CC2C=C(C)/C=C/C=C/C(=O)NC(c3ccccc3)C/C=C/CCC(O)CC(=O)C2=C1O (stereo not given),T/C,"dose: 1.5 mg/kg/injection, schedule: Q01DX009 (ip), vehicle: Klucel (hydroxypropylcellulose) (HPC)",108 % of control
same,T/C,"dose: 3.0 mg/kg/injection, schedule: Q01DX009 (ip), vehicle: Klucel (hydroxypropylcellulose) (HPC)",110 % of control and 119 % of control and 123 % of control
same,T/C,"dose: 3.13 mg/kg/injection, schedule: Q01DX009 (ip), vehicle: Klucel (hydroxypropylcellulose) (HPC)",104 % of control
same,T/C,"dose: 6.25 mg/kg/injection, schedule: Q01DX009 (ip), vehicle: Klucel (hydroxypropylcellulose) (HPC)",109 % of control
CC(C)CC(C(=O)O)N(C)C(=O)OC(C)(C)C (stereo not given),T/C,[10],101 % of control
same,T/C,[11],90 % of control
CN1CCC(c2ccccc2)(c2ccccc2)C(=O)C1,T/C,[1],97 % of control
same,T/C,[2],90 % of control
same,T/C,[4],93 % of control and 95 % of control
CCCCCCCCCCCCO[P+](=O)OCCCCCCCCCCCC,T/C,[2],94 % of control
same,T/C,[4],96 % of control
Nc1ccc2ccc(N)cc2c1,T/C,[1],109 % of control
same,T/C,[2],109 % of control
same,T/C,[4],116 % of control
same,T/C,[6],105 % of control
CCC12C[N+]3([O-])CCc4c([nH]c5ccccc45)C(C(=O)OC)(c4cc5c(cc4OC)N(C)C4C(O)(C(=O)OC)C(OC(C)=O)C6(CC)C=CCN7CCC54C76)CC(C3)C1O2 (stereo not given),T/C,"dose: 0.62 mg/kg/injection, schedule: Q01DX009 (ip), vehicle: water",112 % of control
same,T/C,"dose: 1.25 mg/kg/injection, schedule: Q01DX009 (ip), vehicle: water",104 % of control and 107 % of control
same,T/C,"dose: 2.5 mg/kg/injection, schedule: Q01DX009 (ip), vehicle: saline",185 % of control
same,T/C,"dose: 5.0 mg/kg/injection, schedule: Q01DX009 (ip), vehicle: saline",246 % of control
same,T/C,[12],108 % of control and 261 % of control
same,T/C,"dose: 10.0 mg/kg/injection, schedule: Q01DX009 (ip), vehicle: saline",373 % of control
same,T/C,[13],121 % of control and 309 % of control
CC(C)NC(=O)OCc1c(COC(=O)NC(C)C)c(-c2ccc(Cl)c(Cl)c2)n2c1C[C@@H](O)C2,T/C,[12],160 % of control
same,T/C,[13],196 % of control
same,T/C,"dose: 20.0 mg/kg/injection, schedule: Q01DX009 (ip), vehicle: Klucel (hydroxypropylcellulose) (HPC)",196 % of control
same,T/C,"dose: 20.0 mg/kg/injection, schedule: Q01DX009 (ip), vehicle: water",289 % of control
same,T/C,"dose: 40.0 mg/kg/injection, schedule: Q01DX009 (ip), vehicle: Klucel (hydroxypropylcellulose) (HPC)",223 % of control
same,T/C,"dose: 40.0 mg/kg/injection, schedule: Q01DX009 (ip), vehicle: water",191 % of control
same,T/C,"dose: 80.0 mg/kg/injection, schedule: Q01DX009 (ip), vehicle: Klucel (hydroxypropylcellulose) (HPC)",101 % of control
CCCCCCCCCCCCCCC/C([O-])=N/[N+](C)(C)CC(C)O (stereo not given),T/C,"dose: 25.0 mg/kg/injection, schedule: Q01DX001 (ip), vehicle: saline with Tween-80",105 % of control
same,T/C,"dose: 50.0 mg/kg/injection, schedule: Q01DX001 (ip), vehicle: saline with Tween-80",96 % of control
same,T/C,"dose: 50.0 mg/kg/injection, schedule: Q01DX001 (ip), vehicle: saline",105 % of control
same,T/C,"dose: 100.0 mg/kg/injection, schedule: Q01DX001 (ip), vehicle: saline with Tween-80",97 % of control
same,T/C,"dose: 200.0 mg/kg/injection, schedule: Q01DX001 (ip), vehicle: saline with Tween-80",104 % of control
same,T/C,"dose: 200.0 mg/kg/injection, schedule: Q01DX001 (ip), vehicle: saline",86 % of control
same,T/C,"dose: 400.0 mg/kg/injection, schedule: Q01DX001 (ip), vehicle: saline with Tween-80",100 % of control
O=C1CCCCC1C(=O)C(F)(F)F (stereo not given),T/C,"dose: 4.5 mg/kg/injection, schedule: Q01DX009 (ip), vehicle: saline + Tween-80 + alcohol",103 % of control
same,T/C,"dose: 9.0 mg/kg/injection, schedule: Q01DX009 (ip), vehicle: saline + Tween-80 + alcohol",93 % of control
same,T/C,"dose: 18.0 mg/kg/injection, schedule: Q01DX009 (ip), vehicle: saline + Tween-80 + alcohol",87 % of control
same,T/C,"dose: 50.0 mg/kg/injection, schedule: Q01DX009 (ip), vehicle: saline + Tween-80 + alcohol",102 % of control
